US10253039B2, “Inhibitors of bacterial DNA gyrase with efficacy against gram-negative bacteria” (priority 2014, dated 2019)
Values after ≈ are worked out from the molar mass of the structure shown.

What was measured:
Format in all cases: cell-based
E. coli BW25113 = experiment: MIC, microdilution in 96-well plates; settings: Escherichia coli, BW25113, E. coli BW25113; read-out: MIC
Summary of the method: (§1)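 After 16-18 h shaking incubation at 37 °C, MIC was read visually as the lowest concentration without turbidity. Compounds were 2-fold serially diluted in LB medium seeded with a 1:10000 inoculum, following the CLSI microdilution protocol.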

Edwardsiella tarda = experiment: MIC, microdilution in 96-well plates
Summary of the method: as §1

E. coli JW5503 (deltolC) = experiment: MIC, 20-strain panel; settings: Escherichia coli, E. coli JW5503 (deltolC)
Summary of the method: as §1

E. coli MG1655 = experiment: MIC, 20-strain panel; settings: Escherichia coli, MG1655, E. coli MG1655; read-out: MIC
Summary of the method: as §1

[1] = test system: Klebsiella pneumoniae subsp. pneumoniae; experiment: MIC, 20-strain panel; settings: Klebsiella pneumoniae subsp. pneumoniae
Summary of the method: as §1

[2] = test system: Salmonella enterica subsp. enterica typhimurium; experiment: MIC, 20-strain panel; settings: Salmonella enterica subsp. enterica Typhimurium
Summary of the method: as §1

Shigella flexneri = experiment: MIC, 20-strain panel
Summary of the method: as §1

[3] = test system: Staphylococcus aureus subsp. aureus; experiment: MIC, 20-strain panel; settings: Staphylococcus aureus subsp. aureus, read-out: MIC
Summary of the method: as §1

[4] = test system: Staphylococcus epidermidis; experiment: MIC, 20-strain panel
Summary of the method: as §1

[5] = test system: Staphylococcus saprophyticus subsp. saprophyticus; experiment: MIC, 20-strain panel
Summary of the method: as §1

Streptococcus agalactiae = experiment: MIC, 20-strain panel
Summary of the method: as §1

Streptococcus pyogenes = experiment: MIC, 20-strain panel
Summary of the method: as §1

SMILES	MIC (E. coli BW25113) [µg/mL]	MIC (Edwardsiella tarda) [µg/mL]	MIC (E. coli JW5503 (deltolC)) [µg/mL]	MIC (E. coli MG1655) [µg/mL]	MIC [1] [µg/mL]	MIC [2] [µg/mL]	MIC (Shigella flexneri) [µg/mL]	MIC [3] [µg/mL]	MIC [4] [µg/mL]	MIC [5] [µg/mL]	MIC (Streptococcus agalactiae) [µg/mL]	MIC (Streptococcus pyogenes) [µg/mL]
CC(C)Oc1ccc(CN2CC[C@@H](NS(=O)(=O)c3cc(C(F)(F)F)ccc3Cl)C2)cc1 [Compound 140]	> 8	> 8	< 0.0625	> 8	> 8	4 (≈ 8.39 µM)	> 8	> 8	> 8	> 8	> 8	> 8
O=S(=O)(N[C@@H]1CCN(Cc2ccc(-c3ccccc3)cc2)C1)c1ccc(Cl)cn1 [Compound 141]	> 8	> 8	~8 (≈ 18.7 µM)	> 8	> 8	> 8	> 8	> 8	> 8	> 8	> 8	> 8
CS(=O)(=O)c1ccc(Cl)c(S(=O)(=O)N[C@@H]2CCN(Cc3ccc(-c4ccccc4)cc3)C2)c1 [Compound 142]	> 8	> 8	2 (≈ 3.96 µM)	> 8	> 8	> 8	> 8	> 8	> 8	> 8	> 8	> 8
Cc1c(CN2CC[C@@H](NS(=O)(=O)c3cccc(OC(F)(F)F)c3)C2)cnn1-c1ccccc1 [Compound 144]	> 8	> 8	8 (≈ 16.6 µM)	> 8	> 8	> 8	> 8	> 8	> 8	> 8	> 8	> 8
N#Cc1cccc(S(=O)(=O)N[C@@H]2CCN(Cc3ccc(-n4cccn4)cc3)C2)c1 [Compound 145]	> 8	> 8	8 (≈ 19.6 µM)	> 8	> 8	> 8	> 8	> 8	> 8	> 8	> 8	> 8
O=S(=O)(N[C@@H]1CCN(Cc2ccc(-c3ccccc3)cc2)C1)c1cccnc1 [Compound 146]	> 8	> 8	8 (≈ 20.3 µM)	> 8	> 8	> 8	> 8	> 8	> 8	> 8	> 8	> 8
O=S(=O)(N[C@@H]1CCN(Cc2ccc(-c3ccccc3)cc2)C1)c1cncc(F)c1 [Compound 147]	> 8	> 8	8 (≈ 19.4 µM)	> 8	> 8	> 8	> 8	> 8	> 8	> 8	> 8	> 8
CC(C)Oc1ccc(CN2CC[C@@H](NS(=O)(=O)c3cc(S(C)(=O)=O)ccc3Cl)C2)cc1 [Compound 148]	> 8	> 8	8 (≈ 16.4 µM)	> 8	> 8	> 8	> 8	> 8	> 8	> 8	> 8	> 8
CC(C)Oc1ccc(CN2CC[C@@H](NS(=O)(=O)c3ccc(Cl)cn3)C2)cc1 [Compound 149]	> 8	> 8	> 8	> 8	> 8	> 8	> 8	> 8	> 8	> 8	> 8	> 8
CC(C)Oc1ccc(CN2CC[C@@H](NS(=O)(=O)c3cncc(F)c3)C2)cc1 [Compound 150]	> 8	> 8	> 8	> 8	> 8	> 8	> 8	> 8	> 8	> 8	> 8	> 8
CS(=O)(=O)c1ccc(Cl)c(S(=O)(=O)N[C@@H]2CCN(Cc3ccc(OC4CC4)cc3)C2)c1 [Compound 151]	> 8	> 8	~8 (≈ 16.5 µM)	> 8	> 8	> 8	> 8	> 8	> 8	> 8	> 8	> 8
O=S(=O)(N[C@@H]1CCN(Cc2ccc(OC3CC3)cc2)C1)c1cc(F)cc(C(F)(F)F)c1 [Compound 152]	> 8	> 8	8 (≈ 17.4 µM)	> 8	> 8	> 8	> 8	> 8	> 8	> 8	> 8	> 8
